Our source for the IC50 and EC30 values is US11512053B2, “Arginine methyltransferase inhibitors and uses thereof” (priority 2013, dated 2022).

pIC50: −log10 of the molar value. Like-named read-outs stand apart in the source and are kept apart here. Bounds are passed on as bounds.

In assay [1] the target is full-length human PRMT1 isoform 1 (GST-tagged) (Homo sapiens, UniProt Q99873). Briefly: PRMT1 Biochemical Assay (3H-SAM Flashplate, peptide substrate). From the text:
General Materials. S-adenosylmethionine (SAM), S-adenosylhomocysteine (SAH), bicine, Tween20, dimethylsulfoxide (DMSO), bovine skin gelatin (BSG), and Tris(2-carboxyethyl)phosphine hydrochloride solution (TCEP) were purchased from Sigma-Aldrich at the highest level of purity possible. ^3H-SAM was purchase from American Radiolabeled Chemicals with a specific activity of 80 Ci/mmol. 384-well streptavidin Flashplates were purchased from PerkinElmer.
Protein Expression. Recombinant baculovirus were generated according to Bac-to-Bac kit instructions (Life Technologies). […] Infections were carried out at 27° C. for 48 hours, harvested by centrifugation, and stored at −80° C. for purification.
Protein Purification. […] GST-tagged PRMT1 was eluted with 50 mM Tris, 2 mM glutathione, pH 7.8, dialysed in buffer A and concentrated to 1 mg/mL.
General Procedure for PRMT1 Enzyme Assays on Peptide Substrates. The assays were all performed in a buffer consisting of 20 mM Bicine (pH=7.6), 1 mM TCEP, 0.005% BSG, and 0.002% Tween 20, prepared on the day of use. […] DMSO (1 ul) was added to Columns 11, 12, 23, 24, rows A-H for the maximum signal control and 1 ul of SAH, a known product and inhibitor of PRMT1, was added to columns 11, 12, 23, 24, rows I-P for the minimum signal control. A cocktail (40 ul) containing the PRMT1 enzyme was added by Multidrop Combi (Thermo-Fisher). The compounds were allowed to incubate with PRMT1 for 30 min at room temperature, then a cocktail (10 ul) containing SAM and peptide was added to initiate the reaction (final volume=51 ul). […] The assays were stopped by the addition of non-radiolabeled SAM (10 ul) to a final concentration of 300 uM, which dilutes the ^3H-SAM to a level where its incorporation into the peptide substrate is no longer detectable. 50 ul of the reaction in the 384-well polypropylene plate was then transferred to a 384-well Flashplate and the biotinylated peptides were allowed to bind to the streptavidin surface for at least 1 hour before being washed once with 0.1% Tween20 in a Biotek ELx405 plate washer. The plates were then read in a PerkinElmer TopCount plate reader to measure the quantity of ^3H-labeled peptide bound to the Flashplate surface, measured as disintegrations per minute (dpm) or alternatively, referred to as counts per minute (cpm).
Where dpm=disintegrations per minute, cmpd=signal in assay well, and min and max are the respective minimum and maximum signal controls.
Where top and bottom are the normally allowed to float, but may be fixed at 100 or 0 respectively in a 3-parameter fit. The Hill Coefficient normally allowed to float but may also be fixed at 1 in a 3-parameter fit. Y is the % inhibition and X is the compound concentration.

The subject of assay [2] is mono-methyl arginine in RKO cells. Briefly: RKO Methylation Assay, In Cell Western (ICW) for detection of mono-methyl arginine and DNA content. The format is cell-based. The conditions noted are these: Homo sapiens, RKO, 72 h, RKO cells, read-out: In Cell Western EC30. The method, boiled down:
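RKO cells were treated with compound for 72 hours at 37 °C, methanol-fixed and stained overnight at 4 °C with anti-mono-methyl arginine (1:200), with DRAQ5 for DNA. Odyssey 800/700 nm intensity ratio was normalized to DMSO and 20 μM reference-compound controls. EC30 from triplicate nine-point curves.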

[3] abbreviates: single experiment or average of multiple experiments.
[4] abbreviates: 72 hours compound incubation, mono-methyl arginine signal normalised to DNA content (DRAQ5), percent activation vs 20 μM reference compound.
Setting [5] is: 72 hours incubation, mono-methyl arginine signal normalised to DNA content, single experiment or average of multiple experiments.

Sequence of full-length human PRMT1 isoform 1 (GST-tagged) (Q99873 with tags, fused parts or gaps): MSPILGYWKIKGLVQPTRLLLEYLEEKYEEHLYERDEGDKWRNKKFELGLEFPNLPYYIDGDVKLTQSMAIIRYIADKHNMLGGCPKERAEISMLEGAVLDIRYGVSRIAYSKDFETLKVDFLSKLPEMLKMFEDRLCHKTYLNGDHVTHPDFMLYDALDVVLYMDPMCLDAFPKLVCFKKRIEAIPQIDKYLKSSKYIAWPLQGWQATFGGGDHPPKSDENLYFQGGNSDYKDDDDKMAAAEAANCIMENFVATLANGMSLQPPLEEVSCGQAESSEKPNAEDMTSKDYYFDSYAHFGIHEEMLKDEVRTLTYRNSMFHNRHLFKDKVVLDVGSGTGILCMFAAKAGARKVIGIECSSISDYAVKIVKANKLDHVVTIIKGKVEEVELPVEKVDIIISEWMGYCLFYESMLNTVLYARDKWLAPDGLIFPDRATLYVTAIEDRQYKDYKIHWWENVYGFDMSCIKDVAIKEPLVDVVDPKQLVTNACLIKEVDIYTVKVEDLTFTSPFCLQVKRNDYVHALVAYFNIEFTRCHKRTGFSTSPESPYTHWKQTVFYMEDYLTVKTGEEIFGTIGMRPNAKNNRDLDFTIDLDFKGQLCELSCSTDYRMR

For `CNCCN(C)Cc1c[nH]nc1[C@H]1CC[C@@H](OC2CCCCC2)CC1` [Compound 140], the pIC50 in assay [1] is greater than 7.00; in assay [1] (setting [3]), 7.81. The figures for the concentration for an effect of 30% (EC30) in assay [2] (setting [4]) and in assay [2] (setting [5]) were less than 3000 nM and 164 nM, respectively.
On the same counts, the results for `CNCCN(C)Cc1c[nH]nc1[C@H]1CC[C@@]2(CC1)CC(=O)N(CC(C)C)C2` [Compound 156] are greater than 7.00, 7.76, less than 3000 nM and 1360 nM.
With `CNCCN(C)Cc1c[nH]nc1[C@H]1CC[C@@]2(CCOC2(C)C)CC1` [Compound 106, Methyl [2-(methylamino)ethyl]([3-[(5R,8R)-1,1-dimethyl-2-oxaspiro[4.5]decan-8-yl]-1H-pyrazol-4-yl]methyl)amine], the pIC50 was greater than 7.00 in assay [1] and 8.02 in assay [1] (setting [3]). In addition, the EC30 in assay [2] (setting [4]) is less than 3000 nM; in assay [2] (setting [5]), 22.7 nM.
With `CNCCN(C)Cc1c[nH]nc1[C@H]1CC[C@@]2(CCCO2)CC1` [Compound 143], the figures for the pIC50 in assay [1] and in assay [1] (setting [3]) were greater than 7.00 and 7.97, respectively. In addition, the EC30 is less than 3000 nM in assay [2] (setting [4]) and 59 nM in assay [2] (setting [5]).
For the compound `CCOC1CC(OCC)CC2(CCC(c3n[nH]cc3CN(C)CCNC)CC2)C1` (stereo not drawn) [Compound 159], the negative logarithm of the IC50 (pIC50) was greater than 7.00 in assay [1] and 7.71 in assay [1] (setting [3]). The EC30 is less than 3000 nM in assay [2] (setting [4]) and 63 nM in assay [2] (setting [5]).
Take `CNCCN(C)Cc1c[nH]nc1[C@H]1CC[C@@]2(CCN(CC(C)C)C2=O)CC1` [Compound 129]: the figures for the negative logarithm of the IC50 (pIC50) in assay [1] and in assay [1] (setting [3]) were greater than 7.00 and 7.63, respectively. Further, the EC30 in assay [2] (setting [4]) is less than 3000 nM; in assay [2] (setting [5]), 4.5 nM.
As to `CNCCN(C)Cc1c[nH]nc1C1CCC(OCCOc2ccccc2)CC1` (stereo not drawn) [Compound 136], the pIC50 in assay [1] is greater than 7.00; in assay [1] (setting [3]), 8.54. The figures for the EC30 in assay [2] (setting [4]) and in assay [2] (setting [5]) were less than 3000 nM and 35 nM, respectively.
In the same order, the values of `CNCCN(C)Cc1c[nH]nc1[C@H]1CC[C@]2(CCN(Cc3ccccc3)C2=O)CC1` [Compound 128] are greater than 7.00, 8.28, less than 3000 nM and 1080 nM.
On the same counts, the results for `CNCCN(C)Cc1c[nH]nc1[C@H]1CC[C@H](O)C2(CCCCC2)C1` (racemic) [Compound 184, (1S,4S)-4-[4-({methyl[2-(methylamino)ethyl]amino}methyl)-1H-pyrazol-3-yl] spiro[5.5]undecan-1-ol] are greater than 7.00, 7.70, less than 3000 nM and 458 nM.
As to `CNCCN(C)Cc1c[nH]nc1[C@H]1CC[C@]2(CCC(C)(C)O2)CC1` [Compound 104], the pIC50 in assay [1] was greater than 7.00; in assay [1] (setting [3]), 8.09. The EC30 is less than 3000 nM in assay [2] (setting [4]) and 11.7 nM in assay [2] (setting [5]).
For `CNCCN(C)Cc1c[nH]nc1C1=CCC(CCOC)(CCOC)CC1` [Compound 173], the negative-log IC50 (pIC50) in assay [1] was greater than 7.00; in assay [1] (setting [3]), 7.63. In addition, the EC30 is less than 3000 nM in assay [2] (setting [4]) and 408 nM in assay [2] (setting [5]).
On to `CNCCN(C)Cc1c[nH]nc1C1CCC2(CC1)OCC(C(C)C)CO2` (stereo not drawn) [Compound 150], for which the pIC50 in assay [1] is greater than 7.00; in assay [1] (setting [3]) it was 7.36. For the same compound, the EC30 in assay [2] (setting [4]) is less than 3000 nM; in assay [2] (setting [5]), 256 nM.
On the same counts, the results for `CCC(=O)N(CC1CCOCC1)[C@H]1CC[C@@H](c2n[nH]cc2CN(C)CCNC)CC1` [Compound 108] are greater than 7.00, 7.21, 3010 to 12000 nM and 8550 nM.
Consider `CNCCN(C)Cc1c[nH]nc1[C@H]1CC[C@@]2(CCN(Cc3cc(F)cc(F)c3)C2=O)CC1` [Compound 126], for which the pIC50 in assay [1] is greater than 7.00; in assay [1] (setting [3]) it was 8.40. Moreover, the EC30 in assay [2] (setting [4]) is less than 3000 nM; in assay [2] (setting [5]) it was 638 nM.
On the same counts, the results for `CCC(=O)N(CC1CCOCC1)[C@H]1CC[C@H](c2n[nH]cc2CN(C)CCNC)CC1` [Compound 109] are greater than 7.00, 7.57, less than 3000 nM and 2480 nM.
In the same order, the values of `CNCCN(C)Cc1c[nH]nc1[C@H]1CC[C@@]2(CCN(Cc3ccc(OCCOC)cc3)C2=O)CC1` [Compound 120] are greater than 7.00, 8.00, less than 3000 nM and 9.8 nM.
In the same order, the values of `CNCCN(C)Cc1c[nH]nc1[C@H]1CC[C@]2(CCN(Cc3ccc(F)cc3)C2=O)CC1` [Compound 123] are greater than 7.00, 8.06, less than 3000 nM and 44 nM.
Regarding `CNCCN(C)Cc1c[nH]nc1[C@H]1CC[C@@H](COC)CC1` [Compound 166], the negative logarithm of the IC50 (pIC50) in assay [1] was greater than 7.00; in assay [1] (setting [3]), 7.74. For the same compound, the results for the EC30 in assay [2] (setting [4]) and in assay [2] (setting [5]) were less than 3000 nM and 83 nM, respectively.
In the same order, the values of `CNCCN(C)Cc1c[nH]nc1C1CCC2(CC1)CC(=O)N(Cc1ccc(OC)cc1)C2` (stereo not drawn) [Compound 146] are greater than 7.00, 7.85, less than 3000 nM and 160 nM.
Regarding `CNCCN(C)Cc1c[nH]nc1C1CCC2(CCOCC2)CC1` [Compound 178], the pIC50 is greater than 7.00 in assay [1] and 8.24 in assay [1] (setting [3]). The EC30 in assay [2] (setting [4]) is less than 3000 nM; in assay [2] (setting [5]), 76 nM.
In the same order, the values of `CNCCN(C)Cc1c[nH]nc1C1CCC2(CC1)CCN(CCC(C)C)C2=O` (stereo not drawn) [Compound 163] are greater than 7.00, 7.76, less than 3000 nM and 66 nM.
On the same counts, the results for `CNCCN(C)Cc1c[nH]nc1C1CC(OC(C)C)CC(OC(C)C)C1` (stereo not drawn) [Compound 118] are 5.52 to 6.00, 5.67, 3010 to 12000 nM and 9570 nM.
`CNCCN(C)Cc1c[nH]nc1[C@H]1CC[C@]2(CC1)CC(=O)N(CC(C)C)C2` [Compound 155]: the pIC50 was greater than 7.00 in assay [1] and 7.50 in assay [1] (setting [3]). Besides, the EC30 in assay [2] (setting [4]) was 3010 to 12000 nM; in assay [2] (setting [5]) it was 4080 nM.
As to `CNCCN(C)Cc1c[nH]nc1C1CCCC(COCCC(O)CO)C1` (stereo not drawn) [Compound 113], the results for the pIC50 in assay [1] and in assay [1] (setting [3]) were greater than 7.00 and 7.24, respectively. In addition, the EC30 in assay [2] (setting [4]) is 3010 to 12000 nM; in assay [2] (setting [5]), 7350 nM.
In the same order, the values of `CNCCN(C)Cc1c[nH]nc1C1CCC(CCOC)(CCOC)CC1` [Compound 174] are greater than 7.00, 7.81, less than 3000 nM and 85 nM.
For `CNCCN(C)Cc1c[nH]nc1C1CCC2(CC1)CC(=O)N(CCC(C)C)C2` (stereo not drawn) [Compound 165], the pIC50 in assay [1] is greater than 7.00; in assay [1] (setting [3]), 7.75. Moreover, the EC30 in assay [2] (setting [4]) was less than 3000 nM; in assay [2] (setting [5]), 510 nM.
In the same order, the values of `CNCCN(C)Cc1c[nH]nc1C1CC(C)OC(C)C1` (stereo not drawn) [Compound 179] are greater than 7.00, 7.80, less than 3000 nM and 476 nM.
